This passage reports RP-LC retention time results from the METLIN SMRT retention time set (Domingo-Almenara et al. 2019).

The series is described as follows: gradient 5% acetonitrile 3 min, to 50% in 2 min, to 85% in 15 min, held 3 min, 100 µL/min. The settings on record: column: Zorbax Extend-C18 2.1 x 50 mm; eluents: water / acetonitrile, 0.1% formic acid. An outline of the steps: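 Pure standards were run in mixtures of ~100 molecules by HPLC coupled to a quadrupole time-of-flight mass spectrometer. The column was a Zorbax Extend-C18 (2.1 × 50 mm, 1.8 μm) at 100 μL/min, with water and acetonitrile each containing 0.1% formic acid, in positive and negative ionization mode. Dead and dwell volumes were 40 μL and 900 μL. Retention time was taken from computationally picked adduct peaks, each manually inspected, with data collected over 3 months.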
As for `Cc1cc(C)cc(NC(=O)Cn2c(=O)nc(N3CCCC(C)C3)c3ccccc32)c1` (stereo unspecified), the RP-LC retention time worked out at 913 s.
`Cc1cc(-c2nnc(-c3ccco3)o2)c(C)n1CC(=O)NCc1cc(F)cc(F)c1` returned an RP-LC retention time of 852 s.
`COc1ccccc1NC(=O)CSc1ccc(N2CCCC(C(=O)NC3CC3)C2)nn1` (stereo unspecified): the RP-LC retention time came to 618 s.
For the compound `COc1ccc(Cc2nc3nccc(-c4cccs4)n3n2)cc1`, the RP-LC retention time stood at 871 s.
In turn, `Cc1ccc(CNC(=O)C2(C)CCN(S(=O)(=O)c3ccccc3)CC2)cc1` had an RP-LC retention time of 925 s.
In the case of `CC1CCN(C(=O)C2CCc3sc(C(=O)N4CCCC4)cc3C2)CC1` (stereo unspecified), the RP-LC retention time was 843 s.
In turn, `O=S(=O)(c1ccc(Br)cc1)N1CCSC1c1ccco1` (stereo unspecified) gave an RP-LC retention time of 965 s.
In the case of `COc1ccccc1NC(=O)N1C[C@@H]2CN(S(=O)(=O)c3ccc(C)cc3)C[C@H](C1)O2`, the RP-LC retention time turned out to be 836 s.
The same measure for `CCN1c2ccccc2C(=O)NC12CCN(C(=O)c1cccc(OC)c1)CC2`: 752 s.
For the compound `Cc1ncsc1C1N(C2CCN(C(=O)Cn3ccnc3)CC2)C(=O)C12CCCC2` (stereo unspecified), the RP-LC retention time amounted to 594 s.
`CCc1ccc(C2=C(C)C(N3CCCN(C(=O)CCC(C)C)CC3)=NS2(=O)=O)cc1` registered an RP-LC retention time of 974 s.
For `CC(C)(C)c1ccc(-c2noc(CN3C(=O)COc4cc(Cl)ccc43)n2)cc1`, the RP-LC retention time was found to be 1360 s.
Then `CCOc1ccc(CC(=O)N2CCN(c3cc(-c4cccs4)[nH]n3)CC2)cc1`, with 809 s.
The same measure for `COc1ccc(OCc2nnc3sc(-c4ccc5ccccc5n4)nn23)cc1`: 1040 s.
Then `CCOc1ccc(-c2cc3c(=O)n(Cc4nc(-c5cccc(C)c5)no4)ncn3n2)cc1`, with 1210 s; and `Cc1ccc2c(Nc3ccc(F)cc3)c(C(=O)N3CCCC3)cnc2n1`, with 594 s.
As for `Cc1cc(C)n(-c2ccnc(N3CCC(C(=O)NCCN4CCOCC4)CC3)n2)n1`, the RP-LC retention time came to 607 s.
The same measure for `CCc1nc2c(NC(=O)c3ccc(C)c(F)c3)cccn2n1`: 850 s; for `CCN1CCN(C(=O)CC(c2cc(OC)c(OC)c(OC)c2)N2Cc3ccccc3C2=O)CC1` (stereo unspecified): 613 s.
Compound `COC(=O)c1ccc(S(=O)(=O)N2CCN(S(=O)(=O)C3CC3)CC2)cc1` showed an RP-LC retention time of 878 s.
In the case of `CCOc1cc(=O)n2c(c1C(=O)Nc1ccc(C#N)cc1)CCCC2`, the RP-LC retention time was 708 s.
Then `O=C(Cc1ccc(F)cc1)NCC(=O)N1CCOC(c2ccccc2)C1` (stereo unspecified), with 646 s.
The same measure for `Cc1ccc(C2=NC3(CCN(C(=O)c4n[nH]c5c4CCCC5)CC3)ON2)cc1`: 736 s; for `COc1cc(OC)cc(C(=O)NC2CCN(Cc3c(C)noc3C)C2)c1` (stereo unspecified): 613 s.
The compound `CCC(=O)Nc1ccc(CCc2nc3ccc(C(=O)NC(C)C)cc3[nH]2)cc1` registered an RP-LC retention time of 813 s.
The same measure for `CNS(=O)(=O)c1cccnc1Nc1ccccc1`: 865 s; for `COc1cc(NC(=O)C2CCN(C(=O)C3Sc4ccccc4NC3=O)CC2)cc(OC)c1` (stereo unspecified): 754 s; for `COc1cccc(CN2N=C(C(=O)N3CCOCC3)S(=O)(=O)c3ccccc32)c1`: 800 s.
Turning to `CC(Oc1ccccc1)c1nc(-c2ccc3nnn(C)c3c2)no1` (stereo unspecified), the RP-LC retention time turned out to be 1060 s.
Compound `O=C(Nc1ccc(-c2nc(-c3cccc(Br)c3)co2)cc1)c1ccco1` displayed an RP-LC retention time of 1150 s.
For the compound `COc1ccc(NC(=O)C(C)C2CCN(C(=O)Nc3ccc(F)cc3)CC2)c(OC)c1` (stereo unspecified), the RP-LC retention time came out at 871 s.
`Cc1ccc(NC(=O)Nc2cccn3ncnc23)cc1` registered an RP-LC retention time of 776 s.
`COc1ccc(CNC(=O)c2cn3ccc(C)cc3n2)cc1OC`: the RP-LC retention time was 604 s.
In the case of `COc1ccc(N2CCN(c3ccc(-c4nc(-c5ccccc5)no4)cn3)CC2)cc1`, the RP-LC retention time stood at 1240 s.
On to `Cc1nc(CC(=O)Nc2nc(-c3cccc(Cl)c3)c(C)s2)cs1`, for which the RP-LC retention time is 994 s.
The same measure for `Cn1ncc(Br)c1C(=O)N1CCCC1c1cccc(F)c1` (stereo unspecified): 867 s; for `CCOc1ccccc1NC(=O)N1CCc2nc(-c3ccc(Cl)cc3)ncc2C1`: 1170 s.
Then `O=C(C1CCN(c2cncnc2N2CCCCC2)CC1)N1CCCC1`, with 554 s; and `Cc1cccc2c(C(=O)NC3CC3)cc(N3CCCC3)nc12`, with 593 s.
The same measure for `Cc1ccccc1CN1CCN(CC(=O)NCc2ccc3c(c2)OCO3)C(=O)C1=O`: 715 s.
`CCOC(=O)c1ccc2ncc(C(=O)OCC)c(NCCN(C)C)c2c1` gave an RP-LC retention time of 569 s.
The compound `CCN(CC)S(=O)(=O)c1cc(-c2nnc(-c3ccccc3Cl)o2)ccc1OC` had an RP-LC retention time of 1040 s.
The compound `CCOc1ccc(NC(=O)c2nc(N(C)C)c3c(C)cc(C)nc3n2)cc1` registered an RP-LC retention time of 661 s.
The same measure for `CCN1C(=O)C2(CCN(C(=O)NC(C)C)CC2)c2ccccc21`: 740 s; for `NC(=O)c1n[nH]c2c1CCCCCC2`: 644 s.
The same measure for `CC(C)(C)c1ccc(O)c(NC(=O)c2cn(-c3ccc(S(=O)(=O)N4CCCCC4)cc3)cn2)c1`: 1100 s.
Then `COc1ccc(C2(C(=O)N3CCN(C(=O)c4cc(-c5cccnc5)n[nH]4)CC3)CC2)cc1`, with 621 s; and `Cn1c(=O)sc2cc(S(=O)(=O)N3CCC(C(=O)Nc4ccc(F)c(Cl)c4)CC3)ccc21`, with 938 s.
`CC1=C(c2ccccc2)S(=O)(=O)N=C1N1CCCN(C(=O)NC2CCCC2)CC1` showed an RP-LC retention time of 778 s.
For `Cn1c(=O)c(C(=O)N2CCN(c3ccccn3)CC2)nc2ccccc21`, the RP-LC retention time was 1310 s.
The same measure for `CSc1cccc(NC(=O)N2CCN(c3cc(C)nc(N4CCCC4)n3)CC2)c1`: 696 s; for `COc1ccc(-c2cc(C(=O)O)c3ccccc3n2)cc1`: 645 s.
The same measure for `COc1ccccc1NC(=O)NC(C)(C)CC(C)(C)C`: 1010 s; for `CCc1nc2ccccc2n1CC(=O)NCC(C)C`: 597 s; for `COCCc1noc(C2Cc3ccccc3N2C(=O)Nc2ccc(C)c(C)c2)n1` (stereo unspecified): 1060 s.
With `COC(=O)c1ccc2nc(NC(=O)c3cc(C)oc3C)sc2c1`, the RP-LC retention time amounted to 947 s.
For `CN(CC1CCOCC1)C(=O)Nc1ccc(F)c(Cl)c1`, the RP-LC retention time was determined as 797 s.
Then `CCn1c(C(=O)NCc2ccc(N(C)C)cc2)cc2c(-c3cccs3)nn(-c3ccccc3)c21`, with 906 s; and `Nc1ccc(SCC(=O)Nc2nc(-c3ccccc3)cs2)cc1`, with 817 s.
The same measure for `Cc1nc(CCNC(=O)C2CCN(S(=O)(=O)c3ccc(Cl)cc3)CC2)cs1`: 755 s.
Compound `COC1CCC12CCN(C(=O)CC(C)C)CC2` (stereo unspecified) gave an RP-LC retention time of 810 s.
The same measure for `O=S(=O)(NCc1ccccn1)c1ccc(F)c(Cl)c1`: 643 s; for `Cc1ccc2nc(NC3=NCN(CCc4cccs4)CN3)nc(C)c2c1`: 746 s; for `O=C(Nc1ccc2c(c1)OCCO2)N1CCCC1c1nc(-c2ccc(F)cc2F)no1` (stereo unspecified): 882 s.
`Cc1cc(NC(=O)C2CCN(c3cc(N4CCCC4)ncn3)CC2)ccc1F` gave an RP-LC retention time of 693 s.
The compound `Cc1ccc(-n2nc3c(=O)n(C(C)C(=O)NCc4ccc5c(c4)OCO5)nc(C)c3c2C)cc1` (stereo unspecified) came in with an RP-LC retention time of 878 s.
Then `O=C(NCc1ccccc1F)c1ccc2c(c1)CNCCO2`, with 605 s; and `O=C(Cn1nc2c(N3CCCCCC3)nccn2c1=O)Nc1ccc(F)cc1F`, with 705 s; and `CCn1nc(C)c(CCNC(=O)c2ccc3c(c2)N(C)C(=O)C2CCCCN32)c1C` (stereo unspecified), with 661 s.
For the compound `CCC(=O)N1CCc2cc(C(=O)N3CCN(c4ncccn4)CC3)ccc21`, the RP-LC retention time amounted to 697 s.
In turn, `O=C(Nc1ccc2c(c1)OCO2)C1CCN(c2cc(N3CCSCC3)ncn2)CC1` had an RP-LC retention time of 676 s.
Then `CC(C)Oc1ccc(CNC(=O)c2nc(N3CCOCC3)c3ccccc3n2)cc1`, with 738 s; and `COc1cc(C2CC(=O)c3cnc(N4CCN(CCO)CC4)nc3C2)cc(OC)c1OC` (stereo unspecified), with 559 s; and `COC(=O)c1c(C)[nH]c(C(=O)N2CCC(CC(=O)NCCN3CCCCCC3)CC2)c1C`, with 594 s.
`CCc1ccc(S(=O)(=O)Nc2cc(-n3c(C)nc4ccccc4c3=O)ccc2F)s1` had an RP-LC retention time of 797 s.
The same measure for `CN1C(=O)C(CC(=O)NCC2CCCCC2)Sc2ncccc21` (stereo unspecified): 761 s; for `O=C(Nc1ccc(N2CCCCC2=O)cc1)c1cccc2ccccc12`: 722 s.
The same measure for `Cc1ccc(Nc2nc3ccncc3n(C(C)C)c2=O)cc1Cl`: 771 s; for `Clc1cccc(CNc2cc(-n3ccnc3)ncn2)c1`: 589 s.
Then `CC1CCN(C(=O)c2ccc3ncnc(N4CCCCC4)c3c2)CC1`, with 638 s; and `Cc1cc(C)n(CCC(=O)NCC2Cn3cccc3C(=O)N2C)n1` (stereo unspecified), with 593 s.
